Source: patent US20050288264A2, “Dosage Regimen and Pharmaceutical Composition for Emergency Contraception” (priority 2001, published 2005)
Read-outs that look alike come from different tables or passages of the source.

Format: in vivo, women
Description: The efficacy of the regimen according to this invention was compared with the known regimen administering 0.75-0.75 mg of levonorgestrel 12 hours apart in the following trials.
In a double-blind, randomized, multicentre, multinational trial 1,356 women received 0.75-0.75 mg of levonorgestrel at 12-hour interval in the traditional way, while 1,356 received in a single dose 1.5 ± 0.2 mg of levonorgestrel within 72 hours of the unprotected coitus.
The incidence of vomiting was 1.4% in both groups. As the new regimen also has the advantageous properties resulting from the lack of the estrogen component, the incidence of nausea, feeling of sickness, vomiting was apparently low.
The incidence of menstrual disorders was not increased either by the single administration of 1.5 mg dose of levonorgestrel compared to the administration of two 0.75 mg doses. The incidence of menstrual disorders was 30.9% in both groups.

## C#C[C@]1(O)CC[C@H]2[C@@H]3CCC4=CC(=O)CC[C@@H]4[C@H]3CC[C@@]21CC [levonorgestrel]
0.75-0.75 mg at 12-hour interval (traditional way)
  Prevented fraction (percent of conception which otherwise might happen prevented by the treatment): 77.3%
0.75-0.75 mg at 12-hour interval (traditional way), within 72 hours of unprotected coitus, 1,356 women
  conception rate: 1.77%
In vivo
  incidence of other side-effects (diarrhoea, fatigue, dizziness, headache, breast tenderness, lower abdominal pain): not differing significantly
Single dose 1.5 ± 0.2 mg
  Prevented fraction (percent of conception which otherwise might happen prevented by the treatment): 81.9%
Single dose 1.5 ± 0.2 mg within 72 hours of unprotected coitus, 1,356 women
  conception rate: 1.47%
